Measurements as given in PubChem BioAssay AID1963837 (Molecular Pharmacology Branch, DTP, NCI, 2024).

Test system: 843126-344-R-J1-PDC complex spheroid viability
Experiment: Anticancer human tumor 843126-344-R-J1-PDC patient-derived melanoma cell line growth inhibition [POLQ]
Conditions: for IC50: curve of first compound; for viability, T/C: stronger effect = lower value
Procedure, shortened: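 Complex spheroid viability model combining PDC tumour cells with endothelial (HUVEC) and MSC stromal cells. Novobiocin, ART-558 or RP6685 were tested singly and in combination with standard and investigational anticancer drugs. Each was titrated in half-log steps from near clinical Cmax, or from 10 microM where Cmax was unknown.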

[1] = second compound 0.0316 µM, first compound 0.0316 µM
[2] = second compound 0.0316 µM, first compound 0.1 µM
[3] = second compound 0.0316 µM, first compound 0.316 µM
[4] = second compound 0.0316 µM, first compound 1 µM
[5] = second compound 0.0316 µM, first compound 3.16 µM
[6] = second compound 0.0316 µM, first compound 10 µM
[7] = second compound 0.1 µM, first compound 0.0316 µM
[8] = second compound 0.1 µM, first compound 0.1 µM
[9] = second compound 0.1 µM, first compound 0.316 µM
[10] = second compound 0.1 µM, first compound 1 µM
[11] = second compound 0.1 µM, first compound 3.16 µM
[12] = second compound 0.1 µM, first compound 10 µM
[13] = second compound 0.316 µM, first compound 0.0316 µM
[14] = second compound 0.316 µM, first compound 0.1 µM
[15] = second compound 0.316 µM, first compound 0.316 µM
[16] = second compound 0.316 µM, first compound 1 µM
[17] = second compound 0.316 µM, first compound 3.16 µM
[18] = second compound 0.316 µM, first compound 10 µM
[19] = second compound 1 µM, first compound 0.0316 µM
[20] = second compound 1 µM, first compound 0.1 µM
[21] = second compound 1 µM, first compound 0.316 µM
[22] = second compound 1 µM, first compound 1 µM
[23] = second compound 1 µM, first compound 3.16 µM
[24] = second compound 1 µM, first compound 10 µM
[25] = second compound 3.16 µM, first compound 0.0316 µM
[26] = second compound 3.16 µM, first compound 0.1 µM
[27] = second compound 3.16 µM, first compound 0.316 µM
[28] = second compound 3.16 µM, first compound 1 µM
[29] = second compound 3.16 µM, first compound 3.16 µM
[30] = second compound 3.16 µM, first compound 10 µM
[31] = second compound 10 µM, first compound 0.0316 µM
[32] = second compound 10 µM, first compound 0.1 µM
[33] = second compound 10 µM, first compound 0.316 µM
[34] = second compound 10 µM, first compound 1 µM
[35] = second compound 10 µM, first compound 3.16 µM
[36] = second compound 10 µM, first compound 10 µM
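Throughout, for viability, T/C: spheroids exposed to drugs for seven days before readout.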

With `CCc1cc2c(N3CCc4c(cc(Cn5ccnc5)cc4-c4cn(C)nc4C(F)(F)F)C3=O)cc(C)nc2c(OC)n1` + Cc1cccc(N(C)C(=O)C2C(O)CCN2c2nc(C)cc(C(F)(F)F)c2C#N)c1 the IC50 (second compound 0.0316 µM) was > 10 µM, the IC50 (second compound 0.1 µM) was > 10 µM and the IC50 (second compound 0.316 µM) was > 10 µM. The IC50 (second compound 1 µM) was > 10 µM, the IC50 (second compound 3.16 µM) was > 10 µM and the IC50 (second compound 10 µM) was > 10 µM. The viability, T/C [1] was 90.8%, the viability, T/C [2] was 92.8% and the viability, T/C [3] was 80.9%. It also gave a viability, T/C [4] of 77.7%, a viability, T/C [5] of 72.4% and a viability, T/C [6] of 61.9%. The viability, T/C [7] was 99%, the viability, T/C [8] was 88.5% and the viability, T/C [9] was 79%. The viability, T/C [10] was 79.9%, the viability, T/C [11] was 71.5% and the viability, T/C [12] was 64.1%. It also gave a viability, T/C [13] of 94.3%, a viability, T/C [14] of 93.2% and a viability, T/C [15] of 82.4%. It also gave a viability, T/C [16] of 72.3%, a viability, T/C [17] of 69.8% and a viability, T/C [18] of 62.3%. For the same compound, the viability, T/C [19] was 85.4%, the viability, T/C [20] was 89.5% and the viability, T/C [21] was 77.3%. It also gave a viability, T/C [22] of 70%, a viability, T/C [23] of 75.5% and a viability, T/C [24] of 63.8%. It also gave a viability, T/C [25] of 90.8%, a viability, T/C [26] of 86% and a viability, T/C [27] of 87.7%. The viability, T/C [28] was 70.9%, the viability, T/C [29] was 77.8% and the viability, T/C [30] was 56.8%. It also gave a viability, T/C [31] of 92%, a viability, T/C [32] of 79.9% and a viability, T/C [33] of 80%. The viability, T/C [34] was 74.2%, the viability, T/C [35] was 82.5% and the viability, T/C [36] was 54.4%.
With `C=CCn1c(=O)c2cnc(Nc3ccc(N4CCN(C)CC4)cc3)nc2n1-c1cccc(C(C)(C)O)n1` + COC1C(OC(N)=O)C(O)C(Oc2ccc3c(O)c(NC(=O)c4ccc(O)c(CC=C(C)C)c4)c(=O)oc3c2C)OC1(C)C the IC50 (second compound 0.0316 µM) was > 1 µM, the IC50 (second compound 0.1 µM) was > 1 µM and the IC50 (second compound 0.316 µM) was > 1 µM. The IC50 (second compound 1 µM) was > 1 µM, the IC50 (second compound 3.16 µM) was > 1 µM and the IC50 (second compound 10 µM) was > 1 µM. For the same compound, the viability, T/C (second compound 0.0316 µM, first compound 0.00316 µM) was 114%, the viability, T/C (second compound 0.0316 µM, first compound 0.01 µM) was 84% and the viability, T/C [1] was 86.6%. The viability, T/C [2] was 81.5%, the viability, T/C [3] was 89.4% and the viability, T/C [4] was 80%. For the same compound, the viability, T/C (second compound 0.1 µM, first compound 0.00316 µM) was 93.7%, the viability, T/C (second compound 0.1 µM, first compound 0.01 µM) was 90.4% and the viability, T/C [7] was 99.5%. It also gave a viability, T/C [8] of 82.8%, a viability, T/C [9] of 85.7% and a viability, T/C [10] of 70.6%. The viability, T/C (second compound 0.316 µM, first compound 0.00316 µM) was 87%, the viability, T/C (second compound 0.316 µM, first compound 0.01 µM) was 115% and the viability, T/C [13] was 98.8%. The viability, T/C [14] was 88.5%, the viability, T/C [15] was 81.2% and the viability, T/C [16] was 86.6%. The viability, T/C (second compound 1 µM, first compound 0.00316 µM) was 78.4%, the viability, T/C (second compound 1 µM, first compound 0.01 µM) was 90.3% and the viability, T/C [19] was 86.6%. It also gave a viability, T/C [20] of 85.1%, a viability, T/C [21] of 84.2% and a viability, T/C [22] of 76.9%. For the same compound, the viability, T/C (second compound 3.16 µM, first compound 0.00316 µM) was 83.6%, the viability, T/C (second compound 3.16 µM, first compound 0.01 µM) was 106% and the viability, T/C [25] was 98.5%. The viability, T/C [26] was 72.7%, the viability, T/C [27] was 81.7% and the viability, T/C [28] was 84.2%. For the same compound, the viability, T/C (second compound 10 µM, first compound 0.00316 µM) was 89.8%, the viability, T/C (second compound 10 µM, first compound 0.01 µM) was 97.4% and the viability, T/C [31] was 94.8%. The viability, T/C [32] was 102%, the viability, T/C [33] was 91.9% and the viability, T/C [34] was 65%.
In the case of `COc1ccc([C@@H](O)c2cc(-c3ncnc4cc(N5CCOCC5)ccc34)c(F)cc2Cl)nn1` + Cc1cccc(N(C)C(=O)C2C(O)CCN2c2nc(C)cc(C(F)(F)F)c2C#N)c1, the IC50 (second compound 0.0316 µM) is reported as > 10 µM, the IC50 (second compound 0.1 µM) is reported as > 10 µM and the IC50 (second compound 0.316 µM) is reported as > 10 µM. For the same compound, the IC50 (second compound 1 µM) was > 10 µM, the IC50 (second compound 3.16 µM) was > 10 µM and the IC50 (second compound 10 µM) was > 10 µM. For the same compound, the viability, T/C [1] was 95.1%, the viability, T/C [2] was 76.6% and the viability, T/C [3] was 93.3%. For the same compound, the viability, T/C [4] was 96.9%, the viability, T/C [5] was 81% and the viability, T/C [6] was 63.5%. It also gave a viability, T/C [7] of 85.2%, a viability, T/C [8] of 92.7% and a viability, T/C [9] of 86.4%. The viability, T/C [10] was 99.2%, the viability, T/C [11] was 93.2% and the viability, T/C [12] was 63.3%. It also gave a viability, T/C [13] of 103%, a viability, T/C [14] of 102% and a viability, T/C [15] of 92.2%. It also gave a viability, T/C [16] of 102%, a viability, T/C [17] of 76.9% and a viability, T/C [18] of 80.9%. It also gave a viability, T/C [19] of 79.2%, a viability, T/C [20] of 101% and a viability, T/C [21] of 69.6%. For the same compound, the viability, T/C [22] was 86.6%, the viability, T/C [23] was 79.8% and the viability, T/C [24] was 68.1%. For the same compound, the viability, T/C [25] was 81.2%, the viability, T/C [26] was 89.1% and the viability, T/C [27] was 92.7%. The viability, T/C [28] was 81.9%, the viability, T/C [29] was 97.4% and the viability, T/C [30] was 65.6%. The viability, T/C [31] was 74.1%, the viability, T/C [32] was 83.5% and the viability, T/C [33] was 70.2%. It also gave a viability, T/C [34] of 66%, a viability, T/C [35] of 77.4% and a viability, T/C [36] of 64.1%.
